# Read-outs that look alike come from different tables or passages of the source.
# How the values were obtained:
# [1] = system: Mycobacter fortuitum (NCTC 10394); test: MIC, Mycobacter fortuitum; type: cell-based; conditions: Mycolicibacterium fortuitum, NCTC10394, read-out: Minimum inhibitory concentrations (MICs), M. fortuitum
# Procedure: The effects of compounds of the invention in relation to inhibiting the growth of various microorganisms was determined using methods known to those skilled in the art, for example in vitro methods as described in J. Med. Chem. 47, 2133-2156 (2004) and in vivo methods as described in J. Med. Microbiol. 46, 208-213 (1997), the disclosures of which documents are hereby incorporated by reference. In particular, minimum inhibitory concentrations (MICs) against microorganisms (e.g. S. Aureus, Streptococcus faecalis, Aspergillus niger, Candida albicans or Mycobacterium fortuitum) for compounds of the invention may be measured using procedures such as those described in A. J. Drummond and […] development of microbiological methods for phytochemical screening” Recent Res. Devel. […] The test wells on each 96 well microtitre plate were initially inoculated with culture medium (100 μL) using Mueller-Hinton Broth for antibacterial assays and Sabouraud Broth for antifungal assays. A solution of each test sample (100 μL) was added to one row of each plate and a series of doubling dilutions made for successive rows. Incubation was at 37° C. for antibacterial assay and 25° C. for antifungal assay. […] From the observed pattern of colour, the MIC was determined. All tests included sterility and growth controls.
# [2] = system: Candida albicans (NCPF3179); test: MIC, Candida albicans; type: cell-based; conditions: Candida albicans, NCPF3179, read-out: Minimum inhibitory concentrations (MICs), C. albicans
# S. aureus LS-1 = test: S. aureus infection model in mice, minimal effective dose; type: in vivo; parameters: Development of swollen joints following infection: unit not given here; conditions: for Development of swollen joints following infection: mice
# Procedure: In relation to the methods described in J. Med. Microbiol. 46, 208-213 (1997), compounds may be evaluated in vivo using a model S. Aureus strain LS-1 which, when injected intravenously into mice, consistently causes transient bacteraemia followed by joint localization in 3-4 days. Normal control mice show inflammation of 50-60% of their joints within 3-4 days. The severity of joint sepsis was measured using calipers to determine the diameter of the affected joints. In general, five groups of mice normally having a mean weight of between 18-28 g (5 mice per group) are used for each compound tested, wherein each group is infected with S. Aureus and then provided with a certain dose of the compound to be tested (with one group acting a control).
# Determination of minimal effective dose of title compound of Example 2 in S. aureus infection model.
# Mice were infected with S. aureus LS-1 (50 million cfu by iv injection) and treated with graded doses of the compound of Example 2 (iv injection within 30 minutes). Each group contained 5 mice and comprised the following.
# Group 1: S. aureus LS-1 only
# Group 2: S. aureus LS-1 plus 60 mg/kg of the compound of Example 2
# Group 3: S. aureus LS-1 plus 40 mg/kg of the compound of Example 2
# Group 4: S. aureus LS-1 plus 20 mg/kg of the compound of Example 2
# Group 5: S. aureus LS-1 plus 10 mg/kg of the compound of Example 2
# Mice were assessed daily for weight loss, development of swollen joints and morbidity/mortality.
# [3] = value in parentheses, na = not active
smiles,measurement,setting,value
"Cn1cc(NC(=O)c2cc(NC(=O)c3ccc(/C=C/c4cnc5ccccc5c4)cc3)cn2C)cc1C(=O)NCCN1CCOCC1 [Example 2, 1-Methyl-4-({[1-methyl-4-({4-[(E)-2-(3-quinolinyl)ethenyl]benzoyl}amino)-1H-pyrrol-2-yl]carbonyl}amino)-N-[2-(4-morpholinyl)ethyl]-1H-pyrrole-2-carboxamide]",MIC,[1]; [3],50 µg/mL
same,MIC,[1]; value outside parentheses,67 µM
same,MIC,[2]; [3],25 µg/mL
same,MIC,[2]; value outside parentheses,33.5 µM
same,Weight loss of mice after infection: Mean mouse weight (g) after,"S. aureus LS-1; Group 2, 60 mg/kg iv, Day 2",27.1 g
same,Weight loss of mice after infection: Mean mouse weight (g) after,"S. aureus LS-1; Group 2, 60 mg/kg iv, Day 5",26.3 g
same,Weight loss of mice after infection: Mean mouse weight (g) after,"S. aureus LS-1; Group 2, 60 mg/kg iv, Day 7",26.1 g
same,Mortality rate of mice following infection,"S. aureus LS-1; Group 2, 60 mg/kg iv, day 2 post infection",0/5
same,Mortality rate of mice following infection,"S. aureus LS-1; Group 2, 60 mg/kg iv, day 3 post infection",0/5
same,Mortality rate of mice following infection,"S. aureus LS-1; Group 2, 60 mg/kg iv, day 4 post infection",1/5
same,Mortality rate of mice following infection,"S. aureus LS-1; Group 2, 60 mg/kg iv, day 5 post infection",1/5
same,Mortality rate of mice following infection,"S. aureus LS-1; Group 2, 60 mg/kg iv, day 6 post infection",1/5
same,Mortality rate of mice following infection,"S. aureus LS-1; Group 2, 60 mg/kg iv, day 7 post infection",1/5
same,Weight loss of mice after infection: Mean mouse weight (g) after,"S. aureus LS-1; Group 3, 40 mg/kg iv, Day 2",27.0 g
same,Weight loss of mice after infection: Mean mouse weight (g) after,"S. aureus LS-1; Group 3, 40 mg/kg iv, Day 5",26.4 g
same,Weight loss of mice after infection: Mean mouse weight (g) after,"S. aureus LS-1; Group 3, 40 mg/kg iv, Day 7",26.0 g
same,Mortality rate of mice following infection,"S. aureus LS-1; Group 3, 40 mg/kg iv, day 2 post infection",0/5
same,Mortality rate of mice following infection,"S. aureus LS-1; Group 3, 40 mg/kg iv, day 3 post infection",0/5
same,Mortality rate of mice following infection,"S. aureus LS-1; Group 3, 40 mg/kg iv, day 4 post infection",0/5
same,Mortality rate of mice following infection,"S. aureus LS-1; Group 3, 40 mg/kg iv, day 5 post infection",0/5
same,Mortality rate of mice following infection,"S. aureus LS-1; Group 3, 40 mg/kg iv, day 6 post infection",0/5
same,Mortality rate of mice following infection,"S. aureus LS-1; Group 3, 40 mg/kg iv, day 7 post infection",0/5
same,Weight loss of mice after infection: Mean mouse weight (g) after,"S. aureus LS-1; Group 4, 20 mg/kg iv, Day 2",27.6 g
same,Weight loss of mice after infection: Mean mouse weight (g) after,"S. aureus LS-1; Group 4, 20 mg/kg iv, Day 5",25.4 g
same,Weight loss of mice after infection: Mean mouse weight (g) after,"S. aureus LS-1; Group 4, 20 mg/kg iv, Day 7",25.1 g
same,Mortality rate of mice following infection,"S. aureus LS-1; Group 4, 20 mg/kg iv, day 2 post infection",0/5
same,Mortality rate of mice following infection,"S. aureus LS-1; Group 4, 20 mg/kg iv, day 3 post infection",0/5
same,Mortality rate of mice following infection,"S. aureus LS-1; Group 4, 20 mg/kg iv, day 4 post infection",0/5
same,Mortality rate of mice following infection,"S. aureus LS-1; Group 4, 20 mg/kg iv, day 5 post infection",1/5
same,Mortality rate of mice following infection,"S. aureus LS-1; Group 4, 20 mg/kg iv, day 6 post infection",2/5
same,Mortality rate of mice following infection,"S. aureus LS-1; Group 4, 20 mg/kg iv, day 7 post infection",3/5
same,Weight loss of mice after infection: Mean mouse weight (g) after,"S. aureus LS-1; Group 5, 10 mg/kg iv, Day 2",26.9 g
same,Weight loss of mice after infection: Mean mouse weight (g) after,"S. aureus LS-1; Group 5, 10 mg/kg iv, Day 5",23.0 g
same,Weight loss of mice after infection: Mean mouse weight (g) after,"S. aureus LS-1; Group 5, 10 mg/kg iv, Day 7",22.6 g
same,Mortality rate of mice following infection,"S. aureus LS-1; Group 5, 10 mg/kg iv, day 2 post infection",0/5
same,Mortality rate of mice following infection,"S. aureus LS-1; Group 5, 10 mg/kg iv, day 3 post infection",0/5
same,Mortality rate of mice following infection,"S. aureus LS-1; Group 5, 10 mg/kg iv, day 4 post infection",0/5
same,Mortality rate of mice following infection,"S. aureus LS-1; Group 5, 10 mg/kg iv, day 5 post infection",0/5
same,Mortality rate of mice following infection,"S. aureus LS-1; Group 5, 10 mg/kg iv, day 6 post infection",1/5
same,Mortality rate of mice following infection,"S. aureus LS-1; Group 5, 10 mg/kg iv, day 7 post infection",2/5
same,Development of swollen joints following infection,"S. aureus LS-1; count n/N, Group 2, 60 mg/kg iv, day 2 post infection",0/20
same,Development of swollen joints following infection,"S. aureus LS-1; count n/N, Group 2, 60 mg/kg iv, day 3 post infection",0/20
same,Development of swollen joints following infection,"S. aureus LS-1; count n/N, Group 2, 60 mg/kg iv, day 4 post infection",0/16
same,Development of swollen joints following infection,"S. aureus LS-1; count n/N, Group 2, 60 mg/kg iv, day 5 post infection",0/16
same,Development of swollen joints following infection,"S. aureus LS-1; count n/N, Group 2, 60 mg/kg iv, day 6 post infection",0/16
same,Development of swollen joints following infection,"S. aureus LS-1; count n/N, Group 2, 60 mg/kg iv, day 7 post infection",0/16
same,Development of swollen joints following infection,"S. aureus LS-1; count n/N, Group 3, 40 mg/kg iv, day 2 post infection",0/20
same,Development of swollen joints following infection,"S. aureus LS-1; count n/N, Group 3, 40 mg/kg iv, day 3 post infection",0/20
same,Development of swollen joints following infection,"S. aureus LS-1; count n/N, Group 3, 40 mg/kg iv, day 4 post infection",2/20
same,Development of swollen joints following infection,"S. aureus LS-1; count n/N, Group 3, 40 mg/kg iv, day 5 post infection",3/20
same,Development of swollen joints following infection,"S. aureus LS-1; count n/N, Group 3, 40 mg/kg iv, day 6 post infection",3/20
same,Development of swollen joints following infection,"S. aureus LS-1; count n/N, Group 3, 40 mg/kg iv, day 7 post infection",3/20
same,Development of swollen joints following infection,"S. aureus LS-1; count n/N, Group 4, 20 mg/kg iv, day 2 post infection",1/20
same,Development of swollen joints following infection,"S. aureus LS-1; count n/N, Group 4, 20 mg/kg iv, day 3 post infection",1/20
same,Development of swollen joints following infection,"S. aureus LS-1; count n/N, Group 4, 20 mg/kg iv, day 4 post infection",2/20
same,Development of swollen joints following infection,"S. aureus LS-1; count n/N, Group 4, 20 mg/kg iv, day 5 post infection",1/16
same,Development of swollen joints following infection,"S. aureus LS-1; count n/N, Group 4, 20 mg/kg iv, day 6 post infection",6/20
same,Development of swollen joints following infection,"S. aureus LS-1; count n/N, Group 4, 20 mg/kg iv, day 7 post infection",4/12
same,Development of swollen joints following infection,"S. aureus LS-1; count n/N, Group 5, 10 mg/kg iv, day 2 post infection",1/20
same,Development of swollen joints following infection,"S. aureus LS-1; count n/N, Group 5, 10 mg/kg iv, day 3 post infection",1/20
same,Development of swollen joints following infection,"S. aureus LS-1; count n/N, Group 5, 10 mg/kg iv, day 4 post infection",2/20
same,Development of swollen joints following infection,"S. aureus LS-1; count n/N, Group 5, 10 mg/kg iv, day 5 post infection",2/20
same,Development of swollen joints following infection,"S. aureus LS-1; count n/N, Group 5, 10 mg/kg iv, day 6 post infection",5/16
same,Development of swollen joints following infection,"S. aureus LS-1; count n/N, Group 5, 10 mg/kg iv, day 7 post infection",4/12
same,Development of swollen joints following infection,"S. aureus LS-1; figure in parentheses, Group 2, 60 mg/kg iv, day 2 post infection",0
same,Development of swollen joints following infection,"S. aureus LS-1; figure in parentheses, Group 2, 60 mg/kg iv, day 3 post infection",0
same,Development of swollen joints following infection,"S. aureus LS-1; figure in parentheses, Group 2, 60 mg/kg iv, day 4 post infection",0
same,Development of swollen joints following infection,"S. aureus LS-1; figure in parentheses, Group 2, 60 mg/kg iv, day 5 post infection",0
same,Development of swollen joints following infection,"S. aureus LS-1; figure in parentheses, Group 2, 60 mg/kg iv, day 6 post infection",0
same,Development of swollen joints following infection,"S. aureus LS-1; figure in parentheses, Group 2, 60 mg/kg iv, day 7 post infection",0
same,Development of swollen joints following infection,"S. aureus LS-1; figure in parentheses, Group 3, 40 mg/kg iv, day 2 post infection",0
same,Development of swollen joints following infection,"S. aureus LS-1; figure in parentheses, Group 3, 40 mg/kg iv, day 3 post infection",0
same,Development of swollen joints following infection,"S. aureus LS-1; figure in parentheses, Group 3, 40 mg/kg iv, day 4 post infection",10
same,Development of swollen joints following infection,"S. aureus LS-1; figure in parentheses, Group 3, 40 mg/kg iv, day 5 post infection",15
same,Development of swollen joints following infection,"S. aureus LS-1; figure in parentheses, Group 3, 40 mg/kg iv, day 6 post infection",15
same,Development of swollen joints following infection,"S. aureus LS-1; figure in parentheses, Group 3, 40 mg/kg iv, day 7 post infection",15
same,Development of swollen joints following infection,"S. aureus LS-1; figure in parentheses, Group 4, 20 mg/kg iv, day 2 post infection",5
same,Development of swollen joints following infection,"S. aureus LS-1; figure in parentheses, Group 4, 20 mg/kg iv, day 3 post infection",5
same,Development of swollen joints following infection,"S. aureus LS-1; figure in parentheses, Group 4, 20 mg/kg iv, day 4 post infection",10
same,Development of swollen joints following infection,"S. aureus LS-1; figure in parentheses, Group 4, 20 mg/kg iv, day 5 post infection",6.3
same,Development of swollen joints following infection,"S. aureus LS-1; figure in parentheses, Group 4, 20 mg/kg iv, day 6 post infection",30
same,Development of swollen joints following infection,"S. aureus LS-1; figure in parentheses, Group 4, 20 mg/kg iv, day 7 post infection",33
same,Development of swollen joints following infection,"S. aureus LS-1; figure in parentheses, Group 5, 10 mg/kg iv, day 2 post infection",5
same,Development of swollen joints following infection,"S. aureus LS-1; figure in parentheses, Group 5, 10 mg/kg iv, day 3 post infection",5
same,Development of swollen joints following infection,"S. aureus LS-1; figure in parentheses, Group 5, 10 mg/kg iv, day 4 post infection",10
same,Development of swollen joints following infection,"S. aureus LS-1; figure in parentheses, Group 5, 10 mg/kg iv, day 5 post infection",10
same,Development of swollen joints following infection,"S. aureus LS-1; figure in parentheses, Group 5, 10 mg/kg iv, day 6 post infection",31
same,Development of swollen joints following infection,"S. aureus LS-1; figure in parentheses, Group 5, 10 mg/kg iv, day 7 post infection",33
